According to patent publication US20250017948A1, “CANNABINOID COMPOSITIONS FOR GASTROESOPHAGEAL DISORDERS” (THE UNITED STATES GOVERNMENT AS REPRESENTED BY THE …, priority 2021, published 2025):

Columns and labels:
Assay type in all cases: cell-based, human
HET1A cells [1] = assay: Cell viability via XTT assay; conditions: DCA for 24 hours, then fresh media; FIG. 4A
Protocol: Cells were cultured prior to exposure to the indicated test articles. After treatment, as indicated, cells were washed and resuspended in a phenol red-free RPMI or DMEM and subsequently treated with the XTT assay (ThermoFisher, Waltham, MA, USA) or the MTS assay (Promega, Madison, WI, USA) following manufacturer protocols.
In this example, the role of CBG and Phytol on hallmarks of apoptosis resistance is described. […] Cells were pretreated with or without CBG/Phytol and then treated with DCA or a vehicle control for 24 hours. On the following day, the cells were incubated with fresh media, without DCA, and with or without CBG and/or Phytol. Cell viability was determined via XTT assay.

HET1A cells [2] = assay: Muse Multi-Color DNA Damage kit (ATM and H2AX activation); conditions: preliminary screen, FIG. 1B; cannabinoid:terpene 1:5, with DCA
Protocol: The activation of ATM and H2AX (a marker of DNA breaks) was measured using the Muse Multi-Color DNA Damage kit (MilliporeSigma, Burlington, MA, USA) according to the manufacturer's instructions. The percentage of ATM activated cells and H2AX activated cells was determined as dual activation by monitoring expression of both the ATM and γ-H2AX, using the Muse Cell Analyzer (MilliporeSigma, Burlington, MA, USA). Expression of γ-H2AX was determined by flow cytometry on an Accuri C6 flow cytometer following manufacturer protocol (MilliporeSigma, Burlington, MA, USA).
Combinations of terpenes and cannabinoids were introduced to assess the effect on DNA damage using the Muse Multicolor DNA Damage Kit (see methods for details). Based on a preliminary screen shown in FIG. 1B, it was concluded that DCA induced the highest proportion of DNA damage, along with the addition of […] (THC) containing groups, >5% vs. an untreated group.

HET1A cells [3] = assay: Genomic instability: new copy number events on PMDA arrays; conditions: daily treatment 14 days; DCA 100 μM; CBG/Phytol 1:5; baseline Day 0 genome
Protocol: The impact of phytocannabinoids on acquisition of new genomic changes over time in human esophageal cells was assessed using Axiom™ Precision Medicine Diversity Arrays (PMDA; Affymetrix). HET1a cells, plated in T-150 flasks at a seeding density of 2,500 cells per cm^2, were divided into 4 experimental groups (n=2 each): (i) DMSO-treated controls, (ii) treated with 100 μM of DCA alone, (iii) treated with CBG/Phytol admixture alone, and (iv) treated with 100 μM of DCA and CBG/Phytol admixture. DCA and/or CBG/Phytol were freshly prepared daily by dissolving in DMSO and then added to the media. These cells were cultured for 14 consecutive days. […]
Based on the examples above, it was hypothesized that increased stress-induced apoptosis along with reduced DNA damage and mitochondrial disruption may be concordant to reduced genomic instability. […] DNA from cultured and Day 0 cells was extracted and analyzed using PMDA arrays (Affymetrix). Genomic instability in cultured cells was assessed by identifying new copy number events (both deletions and amplifications), using genome of “Day 0” cells as baseline. […] Compared to control cells, DCA induced a marked (>6-fold) increase in genomic instability, as assessed from the acquisition of new copy number events over a period of […]. […]

HET1a = conditions: for effect on DCA-induced mitochondrial membrane depolarization: treated prior to and during DCA exposure, FIG. 1C-1D, combination at 1:5
Protocol: MitoProbe JC-1 Assay Kit for Flow Cytometry (cat #M34152, ThermoFisher, Massachusetts, USA) was used to measure the mitochondrial membrane potential. Depending on the experimental group, cells were pre-treated with the CBG/Phytol admixture or DMSO and incubated for 2 hours at 37° C. in a CO2 incubator. Cells were then treated with DCA with the CBG/Phytol admixture or DMSO. After treatment, cell were loaded with 2 μM of JC-1 and incubated for 15 minutes at 37° C. Cytoplasmic JC-1 monomers were detected in the green spectrum (˜529 nm) while mitochondrial J-aggregates were detected in the red spectrum (˜590 nm). Results are representative of 2 and 3 independent repeats per cell line.
These concentrations of DCA are found in esophageal aspirates of patients with GERD.
Various ratios of the combination of CBG and phytol were explored to assess DCA-induced mitochondrial membrane depolarization.

[4] = system: CP-A Barrett's esophagus cells; assay: ROS by CM-DCFDA fluorescence after low pH and bile acid cocktail (GER); conditions: FIG. 6F
Protocol: The cannabinoids referenced in the following examples were purchased from Cayman Chemical and brought up to a stock concentration of 100 mM in DMSO. Terpenes were purchased from Sigma Aldrich. Bile acid cocktail consisted of an equimolar mixture of glycocholate, taurocholate, glycodeoxycholate, glycochenodeoxycholate, and deoxycholate at a final concentration of 0.2 mM. This cocktail reflects the mixture of bile acids to which the distal esophagus is ordinarily exposed during gastroesophageal reflux
Combinations of cannabinoids/terpenes were tested to determine whether they protected cells in the esophagus following acute exposure to a low pH environment (pH4.5) combined with a bile acid cocktail comprised of multiple physiologically-relevant secondary bile acids, which mimics the caustic environment during gastroesophageal reflux (GER). […] The cells were either immediately analyzed for ROS via fluorescent detection of CM-DCFDA or recovered for 24 hours and analyzed for DNA damage, via γ-H2AX. […] Furthermore, the combination of CBG and β-caryophyllene was tested in the residual cells and harvested 24 h post-treatment for assessment of DNA damage to obtain the γ-H2AX fluorescence plots in FIG. 6E. […]

## C[C@H](CCC(=O)O)[C@H]1CC[C@H]2[C@@H]3CC[C@@H]4C[C@H](O)CC[C@]4(C)[C@H]3C[C@H](O)[C@]12C [DCA, deoxycholic acid]
HET1A cells [1]
  number of cells after DCA alone: significant reduction in number of cells by 48 hours
HET1A cells [2]
  proportion of DNA damage (% ATM and H2AX positive cells) vs. an untreated group: > 5%
HET1A cells [3]
  increase in genomic instability (new copy number events) compared to control cells: > 6 fold
HET1a; acute exposure to DCA, JC-1 red/green
  dose sufficient to induce membrane polarization: 100 µM
HET1a; human
  dosing that induced severe mitochondrial membrane depolarization and cellular apoptosis: above 300 μM

## C[C@H](CCC(=O)O)[C@H]1CC[C@H]2[C@@H]3[C@@H](O)C[C@@H]4C[C@H](O)CC[C@]4(C)[C@H]3CC[C@]12C [UDCA, ursodeoxycholic acid]
[4]
  mitigation of the oxidative insult of GER (CM-DCFDA fluorescence), comparison with catalase and UDCA: protective effect

## CCCCCc1cc(O)c(C/C=C(\C)CCC=C(C)C)c(O)c1 [CBG, cannabigerol]
HET1a
  effect on DCA-induced mitochondrial membrane depolarization: not reproduced by either compound alone in a statistically significant manner

## C/C(=C\CO)CCC[C@H](C)CCC[C@H](C)CCCC(C)C [phytol]
HET1a
  effect on DCA-induced mitochondrial membrane depolarization: not reproduced by either compound alone in a statistically significant manner
